Publication PMC4503722, “Novel Phenotypic Outcomes Identified for a Public Collection of Approved Drugs from a Publicly Accessible Panel of Assays” (PLoS ONE, 2015)
Like-named read-outs stand apart in the source and are kept apart here.

What was measured:
[1] = tested on: ECFC/ADSC co-culture cell nuclei number
STC-1 cell line = format: cell-based, mouse; details: for IC50/EC50, mSTC-1 GLP1 Secretion (assay number 13): concentration response
NCI-H716 cells = assay: cells; format: cell-based, Human; details: for IC50/EC50, hNCI-H716 GLP1 Secretion (assay number 12): concentration response
HeLa cells = assay: cells; format: cell-based; details: for Hela CellCycMod PI 2N IC50/EC50: assay number 14; for Hela CellCycMod PI 4N IC50/EC50: assay number 16; for Hela CellCycMod PI MI IC50/EC50: assay number 17; for Hela CellCycMod PI Cell Number IC50/EC50: assay number 18; for Hela CellCycMod PI S Phase IC50/EC50: assay number 15
[2] = tested on: endothelial tube formation in co-cultures of ECFCs and ADSCs treated with VEGF; assay: cells; format: cell-based, human
RKO = assay: cells; format: cell-based
DLD-1 = assay: cells; format: cell-based
Colo320 = assay: cells; format: cell-based
SNU-C1 = assay: cells; format: cell-based
HCT116 = assay: cells; format: cell-based
SW480 = assay: cells; format: cell-based
HT-29 = assay: cells; format: cell-based; details: assay number 28; basal

Row | Compound | VEGF_ADSC\ECFC Angio Hoechst NucArea IC50/EC50 [1] [µM] | VEGF_ADSC\ECFC Angio CD31 TubeArea IC50/EC50 [2] [µM] | mSTC-1 GLP1 Secretion IC50/EC50 (STC-1 cell line; assay number 13) [µM] | hNCI-H716 GLP1 Secretion IC50/EC50 (NCI-H716 cells; assay number 12) [µM] | also measured
1 | Clc1ccccc1C(c1ccccc1)(c1ccccc1)n1ccnc1 [NCGC00015251-13] |  |  |  |  | IC50/EC50, VEGF_ADSC\ECFC Angio Hoechst NucArea (assay number 3) [1]: > 10 µM; IC50/EC50, mSTC-1 GLP1 Secretion (assay number 13) (STC-1 cell line): > 40 µM; IC50/EC50, hNCI-H716 GLP1 Secretion (assay number 12) (NCI-H716 cells): 20.2249 µM; IC50/EC50, Hela CellCycMod PI 2N (assay number 14) (HeLa cells; 2N): > 10 µM; IC50/EC50, Hela CellCycMod PI 4N (assay number 16) (HeLa cells; 4N): > 10 µM; IC50/EC50, Hela CellCycMod PI Cell Number (assay number 18) (HeLa cells; Cell Number): > 10 µM; IC50/EC50, Hela CellCycMod PI MI (assay number 17) (HeLa cells; MI): > 10 µM; IC50/EC50, Hela CellCycMod PI S Phase (assay number 15) (HeLa cells; S Phase): > 10 µM; IC50/EC50, VEGF_ADSC\ECFC Angio CD31 TubeArea (assay number 2) [2]: 3.0384 µM
2 | C[n+]1cc2c3c(ccc2c2ccc4cc5c(cc4c21)OCO5)OCO3 [NCGC00015959-09] | 0.9705 | 0.5372 |  |  | Basal_Viability ATP RKO IC50/EC50 (RKO): 0.2646 µM; mSTC-1 GLP1 Secretion IC50/EC50 (STC-1 cell line): > 40 µM; Basal_Viability ATP DLD-1 IC50/EC50 (DLD-1): 0.5755 µM; Basal_Viability ATP Colo 320 IC50/EC50 (Colo320): 0.3498 µM; Basal_Viability ATP SNU-C1 IC50/EC50 (SNU-C1): 0.3161 µM; hNCI-H716 GLP1 Secretion IC50/EC50 (NCI-H716 cells): > 40 µM; Basal_Viability ATP HCT116 IC50/EC50 (HCT116): 0.5253 µM; Basal_Viability ATP SW480 IC50/EC50 (SW480): 0.3789 µM
3 | CCCCCCCCCCCCCCCC[N+](C)(C)CCN(Cc1ccc(OC)cc1)c1ncccn1.[Br-] [NCGC00016507-05] | > 10 | 3.0741 | > 40 | 17.7844 | Hela CellCycMod PI 2N IC50/EC50 (HeLa cells; 2N): > 10 µM; Hela CellCycMod PI 4N IC50/EC50 (HeLa cells; 4N): > 10 µM; Hela CellCycMod PI MI IC50/EC50 (HeLa cells; MI): > 10 µM; Hela CellCycMod PI Cell Number IC50/EC50 (HeLa cells): 0.3488 µM
4 | Cc1cc(C(C)(C)CC(C)(C)C)ccc1OCCOCC[N+](C)(C)Cc1ccccc1 [NCGC00016789-06] | 8.703 | > 10 | > 40 | 12.042 | 
5 | COc1cc2nc(N3CCN(C(=O)C4COc5ccccc5O4)CC3)nc(N)c2cc1OC.CS(=O)(=O)O (stereo not shown) [NCGC00018158-09] | > 10 | > 10 | 10.6547 | > 40 | 
6 | Clc1ccc(CSC(Cn2ccnc2)c2ccc(Cl)cc2Cl)cc1.O=[N+]([O-])O (stereo not shown) [NCGC00018250-06] | 8.757 | 2.1282 | > 40 | 20.9915 | 
7 | CC[C@H](C)C(=O)O[C@H]1C[C@@H](C)C=C2C=C[C@H](C)[C@H](CC[C@@H]3C[C@@H](O)CC(=O)O3)[C@H]21 [NCGC00023509-13] | > 10 | 3.2658 | > 40 | 32.895 | Hela CellCycMod PI 2N IC50/EC50 (HeLa cells; 2N): > 10 µM; Hela CellCycMod PI S Phase IC50/EC50 (HeLa cells): > 10 µM; Hela CellCycMod PI 4N IC50/EC50 (HeLa cells; 4N): > 10 µM; Hela CellCycMod PI MI IC50/EC50 (HeLa cells; MI): > 10 µM; Hela CellCycMod PI Cell Number IC50/EC50 (HeLa cells): > 10 µM
8 | [O-][S+](c1cc(Cl)cc(Cl)c1O)c1cc(Cl)cc(Cl)c1O [NCGC00160554-02] | > 10 | > 10 | > 40 | 19.7164 | 
9 | CC(C)(C)CC(C)(C)c1ccc(O)cc1 [NCGC00164127-07] | 9.1112 | > 10 | 8.3699 | 25.8625 | 
10 | CCCCCCCC/C=C\CCCCCCCCN [NCGC00164329-03] | 9.128 | > 10 | > 40 | 14.7555 | 
11 | CC(O)C(=O)O.CCCCCCCCCCCCCCNCCO [NCGC00164503-02] | 9.1871 | > 10 | > 20 | 13.5546 | 
12 | O=C(O)C[CH2][Ge](=[O])[O][Ge](=[O])[CH2]CC(=O)O [NCGC00164525-02] | 0.2606 | 0.1546 | 0.7932 | 1.5271 | Hela CellCycMod PI 2N IC50/EC50 (HeLa cells; 2N): > 10 µM; Hela CellCycMod PI S Phase IC50/EC50 (HeLa cells): > 10 µM; Hela CellCycMod PI 4N IC50/EC50 (HeLa cells; 4N): > 10 µM; Hela CellCycMod PI MI IC50/EC50 (HeLa cells; MI): > 10 µM; Hela CellCycMod PI Cell Number IC50/EC50 (HeLa cells): 0.5034 µM
13 | OC1(c2ccc(Cl)c(C(F)(F)F)c2)CCN(CCCC(c2ccc(F)cc2)c2ccc(F)cc2)CC1 [NCGC00165865-02] |  |  | > 40 | 8.448 | Basal_Viability ATP RKO IC50/EC50 (RKO; assay number 29, basal): 0.9712 µM; Basal_Viability ATP DLD-1 IC50/EC50 (DLD-1; assay number 23, basal): 1.1393 µM; Basal_Viability ATP Colo 320 IC50/EC50 (Colo320; assay number 27, basal): 0.9617 µM; Basal_Viability ATP SNU-C1 IC50/EC50 (SNU-C1; assay number 30, basal): 0.1675 µM; Basal_Viability ATP HCT116 IC50/EC50 (HCT116; assay number 25, basal): 1.853 µM; Basal_Viability ATP HT-29 IC50/EC50 (HT-29): 0.9459 µM
14 | CC1=C(C(=O)OC(C)C)C(c2cccc([N+](=O)[O-])c2)C(C(=O)OC2CN(C(c3ccccc3)c3ccccc3)C2)=C(N)N1 (stereo not shown) [NCGC00167436-02] | 7.394 | 3.5833 | 1.234 | 12.7519 | 
15 | Clc1ccc(CO/N=C(\Cn2ccnc2)c2ccc(Cl)cc2Cl)c(Cl)c1.O=[N+]([O-])O [NCGC00177980-03] | 8.846 | > 10 | > 40 | > 40 | 
16 | C[C@@H](NCCCc1cccc(C(F)(F)F)c1)c1cccc2ccccc12.Cl [NCGC00181002-04] | > 10 | > 10 | > 40 | 17.1869 | 
17 | O=C(Nc1ccc(S(=O)(=O)N2CCOCC2)cc1)c1cc(Cl)ccc1NS(=O)(=O)c1ccc(Cl)s1 [NCGC00249417-02] | > 10 | > 10 | > 40 | > 40 | 
18 | O=c1[nH]sc2cc(Cl)ccc12 [NCGC00262908-01] |  |  |  |  | IC50/EC50, VEGF_ADSC\ECFC Angio Hoechst NucArea (assay number 3) [1]: 9.427 µM; IC50/EC50, mSTC-1 GLP1 Secretion (assay number 13) (STC-1 cell line): > 40 µM; IC50/EC50, hNCI-H716 GLP1 Secretion (assay number 12) (NCI-H716 cells): > 40 µM; IC50/EC50, VEGF_ADSC\ECFC Angio CD31 TubeArea (assay number 2) [2]: > 10 µM
19 | Cl.Nc1cc(C(F)(F)F)ccc1S [NCGC00262926-01] | > 10 | > 10 | 1.1561 | 15.3214 | 
20 | CN(C)[C@@H]1C(=O)C(C(=O)NCN2CCCC2)=C(O)[C@@]2(O)C(=O)C3=C(O)c4c(O)cccc4[C@@](C)(O)[C@H]3C[C@@H]12 [NCGC00263906-02] |  |  | > 40 | > 40 | 
21 | propagermanium [reference compound] |  |  |  |  | activity in STC-1 GLP-1 secretion assay (in words) (STC-1 cell line): potent actives; activity in NCI-H716 GLP-1 secretion assay (in words) (NCI-H716 cells): potent actives
